This data set in a line: Solubility in PBS. The format is physicochemical. As to the method:
After ultracentrifugation of the PBS solution, the supernatant was analyzed by HPLC and compared to an HPLC injection 50 μM peptide DMSO solution. Solubility was determined by: [(Area of PBS peak)/(Area of DMSO peak)]*50 uM.

In brackets after ≈: the same amount, converted by molar mass.

For orientation: Solubility means how much of the substance goes into solution per volume. A lower Solubility goes with a poorly soluble substance. The term solubility denotes how much of the substance goes into solution per volume.

Consider `CC(=O)N1CCC[C@]12CC=CCCCC1(CCCC=CCCCOC(=O)N3CC[C@@](C(=O)N[C@@H](Cc4ccccc4Cl)C(=O)N[C@@H](Cc4csc5ccccc45)C(=O)N[C@@H](CO)C(N)=O)(C3)NC(=O)[C@H](CC(C)C)NC(=O)[C@H](Cc3ccccc3)NC(=O)[C@H](C)NC(=O)[C@H](C)NC(=O)[C@H](Cc3cccc(C(=O)O)c3)NC(=O)[C@H](CC(=O)O)NC1=O)NC(=O)[C@H](CC(C)(C)C)NC(=O)[C@H](CC(=O)O)NC2=O` (stereo partly drawn) [I-1333, PL3-Asp-Npg-B5-Asp-3COOHF-Ala-Ala-Phe-Leu-PyrS2-2C1F-BztA-Ser-NH2], for which the “Solubility” value amounted to 10 µM (≈ 19.8 µg/mL).

On to `CC(=O)N1CCC[C@]12CC=CCCCC1(CCCC=CCCCOC(=O)N3CC[C@@](C(=O)N[C@@H](Cc4ccccc4Cl)C(=O)N[C@@H](Cc4csc5ccccc45)C(=O)N[C@H](CO)[C@@H](C)O)(C3)NC(=O)[C@H](CC(C)C)NC(=O)[C@H](Cc3ccccc3)NC(=O)[C@H](C)NC(=O)[C@H](C)NC(=O)[C@H](Cc3cccc(C(=O)O)c3)NC(=O)[C@H](CC(=O)O)NC1=O)NC(=O)[C@H](CC(C)(C)C)NC(=O)[C@H](CC(=O)O)NC2=O` (stereo partly drawn) [I-1334, PL3-Asp-Npg-B5-Asp-3COOHF-Ala-Ala-Phe-Leu-PyrS2-2C1F-BztA-Thro1], for which the “Solubility” value is 10 µM (≈ 19.8 µg/mL). In turn, `CC(=O)N1CCC[C@]12CC=CCCCC1(CCCC=CCCCOC(=O)N3CC[C@@](C(=O)N[C@@H](Cc4ccccc4C(F)(F)F)C(=O)N[C@@H](Cc4csc5ccccc45)C(=O)N[C@@H](CCC(N)=O)C(N)=O)(C3)NC(=O)[C@H](CC(C)C)NC(=O)[C@H](Cc3ccccc3)NC(=O)[C@H](C)NC(=O)[C@H](C)NC(=O)[C@H](Cc3cccc(C(=O)O)c3)NC(=O)[C@H](CC(=O)O)NC1=O)NC(=O)[C@H](CC(C)(C)C)NC(=O)[C@H](CC(=O)O)NC2=O` (stereo partly drawn) [I-1335, PL3-Asp-Npg-B5-Asp-3COOHF-Ala-Ala-Phe-Leu-PyrS2-2F3MeF-BztA-Gln-NH2] gave a solubility at 15 min (Solubility (uM)) of 11 µM (≈ 22.6 µg/mL).

Consider `CC(=O)N1CCC[C@]12CC=CCCCC1(CCCC=CCCCOC(=O)N3CC[C@@](C(=O)N[C@@H](Cc4ccccc4C(F)(F)F)C(=O)N[C@@H](Cc4csc5ccccc45)C(=O)N[C@@H](CO)C(N)=O)(C3)NC(=O)[C@H](CC(C)C)NC(=O)[C@H](Cc3ccccc3)NC(=O)[C@H](C)NC(=O)[C@H](C)NC(=O)[C@H](Cc3cccc(C(=O)O)c3)NC(=O)[C@H](CC(=O)O)NC1=O)NC(=O)[C@H](CC(C)(C)C)NC(=O)[C@H](CC(=O)O)NC2=O` (stereo partly drawn) [I-1336, PL3-Asp-Npg-B5-Asp-3COOHF-Ala-Ala-Phe-Leu-PyrS2-2F3MeF-BztA-Ser-NH2], for which the “Solubility” value amounted to 10 µM (≈ 20.1 µg/mL). In the case of `CC(=O)N1CCC[C@]12CC=CCCCC1(CCCC=CCCCOC(=O)N3CC[C@@](C(=O)N[C@@H](Cc4ccccc4C(F)(F)F)C(=O)N[C@@H](Cc4csc5ccccc45)C(=O)N[C@H](CO)[C@@H](C)O)(C3)NC(=O)[C@H](CC(C)C)NC(=O)[C@H](Cc3ccccc3)NC(=O)[C@H](C)NC(=O)[C@H](C)NC(=O)[C@H](Cc3cccc(C(=O)O)c3)NC(=O)[C@H](CC(=O)O)NC1=O)NC(=O)[C@H](CC(C)(C)C)NC(=O)[C@H](CC(=O)O)NC2=O` (stereo partly drawn) [I-1337, PL3-Asp-Npg-B5-Asp-3COOHF-Ala-Ala-Phe-Leu-PyrS2-2F3MeF-BztA-Thro1], the “Solubility” value worked out at 10 µM (≈ 20.2 µg/mL). This counts as double-digit micromolar. `CC(=O)N1CCC[C@]12CC=CCCCC1(CCCC=CCCCOC(=O)N3CC[C@@](C(=O)N[C@@H](Cc4ccccc4Cl)C(=O)N[C@@H](Cc4csc5ccccc45)C(=O)N[C@@H](CCC(N)=O)C(N)=O)(C3)NC(=O)[C@H](Cc3ccccc3)NC(=O)[C@H](Cc3ccccc3)NC(=O)[C@H](C)NC(=O)[C@H](C)NC(=O)[C@H](Cc3cccc(C(=O)O)c3)NC(=O)[C@H](CC(=O)O)NC1=O)NC(=O)[C@H](CC(C)(C)C)NC(=O)[C@H](CC(=O)O)NC2=O` (stereo partly drawn) [I-1338, PL3-Asp-Npg-B5-Asp-3COOHF-Ala-Ala-Phe-Phe-PyrS2-2C1F-BztA-Gln-NH2]: the “Solubility” value came out at 10 µM (≈ 20.6 µg/mL).
